Reference: ChEMBL document CHEMBL1125482, “Pharmacokinetics of catechol cephalosporins. The effect of incorporating substituents into the catechol moiety on pharmacokinetics in a marmoset model” (J Med Chem, 1992)
Converted amounts (≈) assume the structure as drawn.

Key:
[1] = species: Homo sapiens; test: Compound was tested for serum protein binding in human blood; assay type: functional
[2] = species: Canis familiaris; details: dog, in vivo, iv
[3] = Urinary recovery in marmosets (IV dose); assay type: ADME, organism-based; details: callithrix, urine, read-out: Recovery
[4] = system: Mus musculus; test: Compound was evaluated in vivo for antibacterial activity against Pseudomonas aeruginosa (strain 101010) in mice; assay type: functional; details: read-out: PD50
[5] = in vivo; details: callithrix, serum, iv
Description: Serum T1/2 in marmosets (IV dose)

[6] = physchem
Description: Dissociation constant (pKa)

[7] = system: Enterobacter cloacae; test: microbe, parasite or virus in culture
Description: Compound was tested for antimicrobial activity against Enterobacter cloacae inducible type I beta-lactamase producer (P99-) strain

[8] = system: Enterobacter cloacae; test: microbe, parasite or virus in culture; remark: listed apart in the source
Description: Compound was tested for antimicrobial activity against Enterobacter cloacae constitutive derepressed type I beta-lactamase producer (P99+) strain

[9] = system: Pseudomonas aeruginosa; test: microbe, parasite or virus in culture
Description: Compound was tested for antimicrobial activity against Pseudomonas aeruginosa PU21 strain

[10] = system: Staphylococcus aureus; test: microbe, parasite or virus in culture
Description: Compound was tested for antimicrobial activity against Staphylococcus aureus penicillin sensitive Staphylococcus aureus (147N) strain

[11] = system: Escherichia coli; test: microbe, parasite or virus in culture
Description: Compound was tested for antimicrobial activity against Escherichia coli DC0 strain (parent organism)

[12] = system: Escherichia coli; test: microbe, parasite or virus in culture; remark: listed apart in the source
Description: Compound was tested for antimicrobial activity against Escherichia coli DC2 strain (permeability mutant)

[13] = system: Pseudomonas aeruginosa; test: Compound was tested for antimicrobial activity against Pseudomonas aeruginosa constitutive derepressed type I beta-lactamase producer (18SH) strain; assay type: functional
[14] = system: Staphylococcus aureus; test: microbe, parasite or virus in culture; remark: listed apart in the source
Description: Compound was tested for antimicrobial activity against Staphylococcus aureus Oxford strain

[15] = system: Pseudomonas aeruginosa; test: microbe, parasite or virus in culture; remark: listed apart in the source
[16] = system: Mus musculus; test: Compound was evaluated in vivo for antibacterial activity against Pseudomonas aeruginosa (strain 101010) in mice; range 1.0-6.0 mg/Kg; assay type: functional
[17] = species: Homo sapiens; test: Compound is evaluated for serum protein binding in human blood […]; assay type: functional

| SMILES | Activity [1] | AUC [2] | dose excreted [3] | ED50 [4] | half-life [5] | pKa [6] | MIC [7] | MIC [8] | MIC [9] | MIC [10] | MIC [11] | MIC [12] | MIC [13] | MIC [14] | MIC [15] | PD50 [16] | Activity [17] |
| --- | --- | --- | --- | --- | --- | --- | --- | --- | --- | --- | --- | --- | --- | --- | --- | --- | --- |
| CC(C)(O/N=C(\C(=O)N[C@@H]1C(=O)N2C(C(=O)O)=C(CNC(=O)c3cc(Cl)c(O)c(O)c3Cl)CS[C@H]12)c1csc(N)n1)C(=O)O | 98.7% | 461 mg/h/L | 16.2% | 0.003 mg/kg | 8.2 h | 6.3 | – | – | – | – | – | – | – | – | – | – | – |
| CC(C)(O/N=C(\C(=O)N[C@@H]1C(=O)N2C(C(=O)O)=C(CNC(=O)c3ccc(O)c(O)c3)CS[C@H]12)c1csc(N)n1)C(=O)O | 96.3% | 27.2 mg/h/L | 44.8% | – | 1.25 h | 8.5 | 0.0125 µg/mL (≈ 0.0201 µM) | 16 µg/mL (≈ 25.8 µM) | 0.015 µg/mL (≈ 0.0242 µM) | 16 µg/mL (≈ 25.8 µM) | < 0.008 µg/mL | 0.008 µg/mL (≈ 0.0129 µM) | 0.06 µg/mL (≈ 0.0967 µM) | 8 µg/mL (≈ 12.9 µM) | – | – | – |
| CC(C)(O/N=C(\C(=O)N[C@@H]1C(=O)N2C(C(=O)O)=C(CNC(=O)c3cc(O)c(O)c(C#N)c3)CS[C@H]12)c1csc(N)n1)C(=O)O | 96.7% | 394.5 mg/h/L | 8.7% | 0.013 mg/kg | 5.3 h | 5.5 | – | – | – | – | – | – | – | – | – | – | – |
| CC(C)(O/N=C(\C(=O)N[C@@H]1C(=O)N2C(C(=O)O)=C(CNC(=O)c3cc(O)c(O)c(Br)c3)CS[C@H]12)c1csc(N)n1)C(=O)O | 99.2% | 137.1 mg/h/L | 13.9% | 0.024 mg/kg | 2.9 h | 6.9 | 0.03 µg/mL (≈ 0.0429 µM) | 2 µg/mL (≈ 2.86 µM) | < 0.008 µg/mL | 16 µg/mL (≈ 22.9 µM) | – | – | – | 16 µg/mL (≈ 22.9 µM) | 0.015 µg/mL (≈ 0.0214 µM) | – | – |
| CCn1cc(C(=O)NCC2=C(C(=O)O)N3C(=O)[C@@H](NC(=O)/C(=N\OC(C)(C)C(=O)O)c4csc(N)n4)[C@H]3SC2)c(=O)c2cc(O)c(O)cc21 | 99% | 238.5 mg/h/L | 17.5% | 0.01 mg/kg | 3.5 h | 7.2 | 0.06 µg/mL (≈ 0.0838 µM) | 0.25 µg/mL (≈ 0.349 µM) | 0.06 µg/mL (≈ 0.0838 µM) | 16 µg/mL (≈ 22.4 µM) | < 0.008 µg/mL | 0.008 µg/mL (≈ 0.0112 µM) | – | 16 µg/mL (≈ 22.4 µM) | < 0.008 µg/mL | – | – |
| CC(C)(O/N=C(\C(=O)N[C@@H]1C(=O)N2C(C(=O)O)=C(CNC(=O)c3cc(O)c(O)c(Cl)c3)CS[C@H]12)c1csc(N)n1)C(=O)O | – | 638.3 mg/h/L | – | 0.004 mg/kg | 4.6 h | 7 | – | – | – | – | – | – | – | – | – | – | – |
| CCN(CC1=C(C(=O)O)N2C(=O)[C@@H](NC(=O)/C(=N\OC(C)(C)C(=O)O)c3csc(N)n3)[C@H]2SC1)C(=O)c1cc(O)c(O)c(Br)c1 | – | 21.8 mg/h/L | – | – | 1 h | 7.3 | 0.25 µg/mL (≈ 0.344 µM) | 1 µg/mL (≈ 1.37 µM) | 0.03 µg/mL (≈ 0.0412 µM) | 32 µg/mL (≈ 44 µM) | 0.015 µg/mL (≈ 0.0206 µM) | 0.015 µg/mL (≈ 0.0206 µM) | – | 32 µg/mL (≈ 44 µM) | 0.06 µg/mL (≈ 0.0825 µM) | – | – |
| CCO/N=C(\C(=O)N[C@@H]1C(=O)N2C(C(=O)O)=C(CNC(=O)c3cc(O)c(O)c(Br)c3)CS[C@H]12)c1csc(N)n1 | – | 17 mg/h/L | – | – | 0.7 h | 6.9 | 0.015 µg/mL (≈ 0.0234 µM) | 8 µg/mL (≈ 12.5 µM) | 0.06 µg/mL (≈ 0.0935 µM) | 4 µg/mL (≈ 6.24 µM) | < 0.008 µg/mL | – | – | 2 µg/mL (≈ 3.12 µM) | 4 µg/mL (≈ 6.24 µM) | – | – |
| CCO/N=C(\C(=O)N[C@@H]1C(=O)N2C(C(=O)O)=C(CNC(=O)c3ccc(O)c(O)c3)CS[C@H]12)c1csc(N)n1 | – | 4.3 mg/h/L | – | – | 0.8 h | 8.5 | 0.5 µg/mL (≈ 0.889 µM) | 64 µg/mL (≈ 114 µM) | 0.25 µg/mL (≈ 0.444 µM) | 4 µg/mL (≈ 7.11 µM) | 0.06 µg/mL (≈ 0.107 µM) | 0.08 µg/mL (≈ 0.142 µM) | – | 2 µg/mL (≈ 3.56 µM) | 64 µg/mL (≈ 114 µM) | – | – |
| CC(C)(O/N=C(\C(=O)N[C@@H]1C(=O)N2C(C(=O)[O-])=C(C[n+]3ccccc3)CS[C@H]12)c1csc(N)n1)C(=O)O [CEFTAZIDIME] | – | 14 mg/h/L | – | – | 0.7 h | – | 0.125 µg/mL (≈ 0.229 µM) | 32 µg/mL (≈ 58.5 µM) | 1 µg/mL (≈ 1.83 µM) | 8 µg/mL (≈ 14.6 µM) | 0.125 µg/mL (≈ 0.229 µM) | 0.06 µg/mL (≈ 0.11 µM) | – | 4 µg/mL (≈ 7.32 µM) | 16 µg/mL (≈ 29.3 µM) | 1 µg/mL | – |
| CO/N=C(\C(=O)N[C@@H]1C(=O)N2C(C(=O)O)=C(CSc3nc(=O)c(O)nn3C)CS[C@H]12)c1csc(N)n1 [CEFTRIAXONE] | – | – | 25.4% | – | – | – | – | – | – | – | – | – | – | – | – | – | 94.5% |
